Data as given in patent US7105513B2, “Acylated, heteroaryl-condensed cycloalkenylamines and their use as pharmaceuticals” (Sanofi-Avertis Deutschland GmbH, priority 2002, dated 2006).
pEC50: −log10 of the molar value. Where a name gives a salt, the structure may show the parent alone.

Tested on: eNOS promoter
Test: Activation of eNOS transcription (eNOS promoter-luciferase reporter gene assay)
Type: cell-based
Settings: Homo sapiens, Endothelial cell, 18 h, human endothelial cell line stably transfected with eNOS promoter-firefly luciferase construct; 18 h incubation; EC50 determined graphically; read-out: EC50 of transcription induction ratio (TIR)
Experimental: Determination of Activation of eNOS Transcription
Activation of eNOS transcription was determined as described in detail in Li et al., “Activation of protein kinase C alpha and/or epsilon enhances transcription of the human endothelial nitric oxide synthase gene”, Mol. Pharmacol. 53 (1998) 630, the content of which is incorporated herein by reference.
Briefly, a 3.5 kB long fragment 5′ of the starting codon of the eNOS gene was cloned, sequenced and cloned in firefly luciferase expression plasmids to monitor activation of the eNOS promoter by reporter gene activity. A human endothelial cell line stable transfected and expressing this promoter-reporter construct was used for compound testing. Cells were incubated for 18 h with compounds.
All compounds were dissolved in sterile dimethyl sulfoxide (DMSO). A final concentration of 0.5% DMSO in complete medium was allowed. Induction of reporter gene expression in these cells was measured using a standard luciferase assay system (Promega, Cat. No E150) according to the manufacturer's instructions. Luciferase induction in cells incubated with compounds were compared to those incubated with solvent alone. The ratio of both activities (transcription induction ratio, TIR) was plotted as a function of compound concentration,. Typically, TIR values started at low concentrations at a ratio of 1, indicating no compound effect, and extended up to a maximum TIR value TIR(max) which indicates the increase of the eNOS transcription. EC50 values of transcription induction ratios as a function of compound concentration were determined graphically.

Question: With `Cc1ccc(C(=O)NC2Cc3cccnc3C2)c(C)n1` (single isomer, unassigned; enantiomer 1) [Example 5, N-(6,7-Dihydro-5H-[1]pyrindin-6-yl)-2,6-dimethylnicotinamide (enantiomer 1)] as the compound, how does the pEC50 read?
Answer: Its pEC50 is 5.48.

Question: With `COc1ccc(C(=O)NC2Cc3cccnc3C2)cn1` (single isomer, unassigned; enantiomer 1) [Example 6, N-(6,7-Dihydro-5H-[1]pyrindin-6-yl)-6-methoxynicotinamide (enantiomer 1)] as the compound, how does the pEC50 read?
Answer: The pEC50 was 4.92.

Question: `Cc1nc2ccc(C(=O)NC3Cc4cccnc4C3)cc2[nH]1` (single isomer, unassigned; enantiomer 1) [Example 7, 2-Methyl-3H-benzimidazole-5-carboxylic acid (6,7-dihydro-5H-[1]pyrindin-6-yl)amide (enantiomer 1)] was tested. Which pEC50 did it give?
Answer: The pEC50 was 4.64.

Question: `COCc1ccc(C(=O)NC2Cc3cccnc3C2)cn1` (single isomer, unassigned; enantiomer 1) [Example 8, N-(6,7-Dihydro-5H-[1]pyrindin-6-yl)-6-methoxymethyinicotinamide (enantiomer 1)] was tested. Which pEC50 did it give?
Answer: Its pEC50 is 4.52.

Question: With `O=C(NC1Cc2cccnc2C1)c1ccc2c(c1)OC(F)(F)O2` (single isomer, unassigned; enantiomer 1) [Example 9, 2,2-Difluorobenzo[1,3]dioxole-5-carboxylic acid (6,7-dihydro-5H-[1]pyrindin-6-yl)amide (enantiomer 1), trifluoroacetic acid salt] as the compound, how does the pEC50 read?
Answer: The pEC50 was 6.03.

Question: `O=C(NC1Cc2cccnc2C1)c1ccc(Cl)cc1` (single isomer, unassigned; enantiomer 1) [Example 10, 4-Chloro-N-(6,7-dihydro-5H-[1]pyrindin-6-yl)benzamide (enantiomer 1), trifluoroacetic acid salt] was tested. Which pEC50 did it give?
Answer: Its pEC50 is 6.10.

Question: `Cc1ccc(C(=O)NC2CCCc3cccnc3C2)c(C)c1` (stereo not drawn) [Example 11, 2,4-Dimethyl-N-(6,7,8,9-tetrahydro-5H-cyclohepta[b]pyridin-8-yl)benzamide] was tested. Which pEC50 did it give?
Answer: Its pEC50 is 7.19.

Question: With `Cc1cnc(C(=O)NC2Cc3ccsc3C2)c(N)n1` (stereo not drawn) [Example 12, 3-Amino-5-methylpyrazine-2-carboxylic acid (5,6-dihydro4H-cyclopenta[b]thiophen-5-yl)amide] as the compound, how does the pEC50 read?
Answer: The pEC50 was 4.96.

Question: `Cc1ccc(C(=O)NC2Cc3ccsc3C2)c(C)n1` (stereo not drawn) [Example 13, N-(5,6-Dihydro-4H-cyclopenta[b]thiophen-5-yl)-2,6-dimethylnicotinamide, trifluoroacetic acid salt] was tested. Which pEC50 did it give?
Answer: The pEC50 was 6.21.

Question: With `COc1ccc(C(=O)NC2Cc3ccsc3C2)cn1` (stereo not drawn) [Example 14, N-(5,6-Dihydro-4 H-cyclopenta[b]thiophen-5-yl)-6-methoxynicotinamide] as the compound, how does the pEC50 read?
Answer: Its pEC50 is 5.62.

Question: With `Cc1nc2ccc(C(=O)NC3Cc4ccsc4C3)cc2[nH]1` (stereo not drawn) [Example 15, 2-Methyl-3H-benzimidazole-5-carboxylic acid (5,6-dihydro-4H-cyclopenta[b]thiophen-5-yl)amide, trifluoroacetic acid salt] as the compound, how does the pEC50 read?
Answer: The pEC50 was 5.51.

Question: How did the pEC50 turn out when `Cc1c(C(=O)NC2Cc3ccsc3C2)cnn1-c1ccccc1` (stereo not drawn) [Example 16, 5-Methyl-1-phenyl-1H-pyrazole-4-carboxylic acid (5,6-dihydro-4H-cyclopenta[b]thiophen-5-yl)amide] was run?
Answer: The pEC50 was 6.70.

Question: With `O=C(NC1Cc2ccsc2C1)c1cnn(-c2ccccc2)c1C(F)(F)F` (stereo not drawn) [Example 17, 1-Phenyl-5-trifluoromethyl-1H-pyrazole-4-carboxylic acid (5,6-dihydro-4H-cyclopenta[b]thiophen-5-yl)amide] as the compound, how does the pEC50 read?
Answer: The pEC50 was 6.46.

Question: With `Cc1cc(C(=O)NC2Cc3ccsc3C2)c(C)n1Cc1ccncc1` (stereo not drawn) [Example 18, 2,5-Dimethyl-1-pyridin-4-ylmethyl-1H-pyrrole-3-carboxylic acid (5,6-dihydro-4H-cyclopenta[b]thiophen-5-yl)amide, trifluoroacetic acid salt] as the compound, how does the pEC50 read?
Answer: The pEC50 was 5.48.

Question: How did the pEC50 turn out when `Cc1nc(C)c(C(=O)NC2Cc3ccsc3C2)s1` (stereo not drawn) [Example 19, 2,4-Dimethylthiazole-5-carboxylic acid (5,6-dihydro-4H-cyclopenta[b]thiophen-5-yl)amide] was run?
Answer: The pEC50 was 4.70.

Question: `Cc1nn(C)cc1C(=O)NC1Cc2ccsc2C1` (stereo not drawn) [Example 20, 1,3-Dimethyl-1H-pyrazole-4-carboxylic acid (5,6-dihydro-4H-cyclopenta[b]thiophen-5-yl)amide] was tested. Which pEC50 did it give?
Answer: Its pEC50 is 5.01.

Question: `Nc1ncccc1C(=O)NC1Cc2ccsc2C1` (stereo not drawn) [Example 21, 2-Amino-N-(5,6-dihydro-4H-cyclopenta[b]thiophen-5-yl)nicotinamide, trifluoroacetic acid salt] was tested. Which pEC50 did it give?
Answer: The pEC50 was 5.32.

Question: How did the pEC50 turn out when `Cc1ccc(C(=O)NC2Cc3ccsc3C2)cn1` (stereo not drawn) [Example 22, N-(5,6-Dihydro-4H-cyclopenta[b]thiophen-5-yl)-6-methylnicotinamide, trifluoroacetic acid salt] was run?
Answer: The pEC50 was 5.80.

Question: `Cc1ccc(C(=O)NC2Cc3ccsc3C2)c(Cl)n1` (stereo not drawn) [Example 23, 2-Chloro-N-(5,6-dihydro-4H-cyclopenta[b]thiophen-5-yl)-6-methylnicotinamide] was tested. Which pEC50 did it give?
Answer: Its pEC50 is 6.10.

Question: `COCc1ccc(C(=O)NC2Cc3ccsc3C2)cn1` (stereo not drawn) [Example 24, N-(5,6-Dihydro4H-cyclopenta[b]thiophen-5-yl)-6-methoxymethylnicotinamide, trifluoroacetic acid salt] was tested. Which pEC50 did it give?
Answer: Its pEC50 is 3.90.

Question: With `Nc1nccnc1C(=O)NC1Cc2ccsc2C1` (stereo not drawn) [Example 25, 3-Aminopyrazine-2-carboxylic acid (5,6-dihydro-4H-cyclopenta[b]thiophen-5-yl)amide] as the compound, how does the pEC50 read?
Answer: Its pEC50 is 4.74.

Question: `O=C(NC1Cc2ccsc2C1)c1cccc(Cl)c1Cl` (stereo not drawn) [Example 26, 2,3-Dichloro-N-(5,6-dihydro-4H-cyclopenta[b]thiophen-5-yl)benzamide] was tested. Which pEC50 did it give?
Answer: Its pEC50 is 5.82.

Question: With `Cc1ccc(C(=O)NC2Cc3ccsc3C2)c(C)c1` (stereo not drawn) [Example 27, N-(5,6-Dihydro-4H-cyclopenta[b]thiophen-5-yl)-2,4-dimethylbenzamide] as the compound, how does the pEC50 read?
Answer: The pEC50 was > 7.00.

Question: `O=C(NC1Cc2ccsc2C1)c1ccc(F)cc1F` (stereo not drawn) [Example 28, N-(5,6-Dihydro-4H-cyclopenta[b]thiophen-5-yl)-2,4-difluorobenzamide] was tested. Which pEC50 did it give?
Answer: Its pEC50 is 6.12.

Question: With `CS(=O)(=O)Nc1cccc(C(=O)NC2Cc3ccsc3C2)c1` (stereo not drawn) [Example 29, N-(5,6-Dihydro-4H-cyclopenta[b]thiophen-5-yl)-3-methylsulfonylaminobenzamide] as the compound, how does the pEC50 read?
Answer: Its pEC50 is 5.64.

Question: With `O=C(NC1Cc2ccsc2C1)c1ccc(N2CCOCC2)nc1` (stereo not drawn) [Example 30, N-(5,6-Dihydro-4H-cyclopenta[b]thiophen-5-yl)-6-(morpholin-4-yl)nicotinamide, trifluoroacetic acid salt] as the compound, how does the pEC50 read?
Answer: The pEC50 was 4.96.

Question: How did the pEC50 turn out when `O=C(NC1Cc2ccsc2C1)c1cccc(N2CCOCC2)c1` (stereo not drawn) [Example 31, N-(5,6-Dihydro-4H-cyclopenta[b]thiophen-5-yl)-3-(morpholin-4-yl)benzamide] was run?
Answer: Its pEC50 is 5.48.
